Data set [1] in a line: Drug excretion in urine of healthy obese adult male human treated with [14C]CP-945,598 at 25 mg, po administered as single dose after 0 to 384 hrs hrs by HPLC method. Type of data set: ADME, organism-based. The settings on record: in vivo.
Data set [2] in a line: Drug excretion in feces of healthy obese adult male human treated with [14C]CP-945,598 at 25 mg, po administered as single dose after 0 to 384 hrs hrs by HPLC method. Type of data set: ADME, organism-based. The settings on record: in vivo.
Data set [3] relates to Homo sapiens. In words: Total drug excretion in healthy obese adult male human treated with [14C]CP-945,598 at 25 mg, po administered as single dose after 0 to 384 hrs hrs by HPLC method. Type of data set: ADME, organism-based. The settings on record: in vivo.
Another data set deals with Cytochrome P450 3A4 (Homo sapiens, UniProt P08684). Description: Drug metabolism assessed as human recombinant CYP3A4-mediated metabolite formation after 60 mins by HPLC method. Type of data set: ADME. The following applies: recombinant enzyme, 1 h.
Data set [4] relates to Serum. Description: Total drug level in serum of healthy obese adult male human treated with [14C]CP-945,598 at 25 mg, po administered as single dose after 48 hrs by HPLC method. Type of data set: ADME, organism-based. The following applies: in vivo.
In data set [5] the test system is Serum. In words: Drug level in serum of healthy obese adult male human treated with [14C]CP-945,598 at 25 mg, po administered as single dose after 4 hrs by HPLC method. The following applies: in vivo. Type of data set: ADME, organism-based.
Data set [6] has as its system Serum. Description: Drug level in serum of healthy obese adult male human treated with [14C]CP-945,598 at 25 mg, po administered as single dose after 12 hrs by HPLC method. Type of data set: ADME, organism-based. The following applies: in vivo.
The test system of data set [7] is Serum. Description: Drug level in serum of healthy obese adult male human treated with [14C]CP-945,598 at 25 mg, po administered as single dose after 24 hrs by HPLC method. Type of data set: ADME, organism-based. The following applies: in vivo.
Data set [8] deals with Serum. Description: Drug level in serum of healthy obese adult male human treated with [14C]CP-945,598 at 25 mg, po administered as single dose after 48 hrs by HPLC method. Type of data set: ADME, organism-based. The following applies: in vivo.
Data set [9] deals with Serum. In words: AUC in serum of healthy obese adult male human treated with [14C]CP-945,598 at 25 mg, po administered as single dose after 48 hrs by HPLC method. The arrangement: time < 48 hr, dose 25 mg, route oral. The settings on record: in vivo. Type of data set: ADME, organism-based.
The nature of data set [10]: Tmax in human. Type of data set: ADME, organism-based. The following applies: in vivo.
A short description of data set [11]: Terminal phase half life in human. Type of data set: ADME, organism-based. The following applies: in vivo, read-out: beta t1/2 (converted).
The nature of data set [12]: Tmax in healthy obese adult male human at 25 mg, po administered as single dose. Type of data set: ADME, organism-based. The settings on record: in vivo.
Data set [13] is described as follows: Cmax in healthy obese adult male human at 25 mg, po administered as single dose. Type of data set: ADME, organism-based. More on the design: dose 25 mg, route oral. The settings on record: in vivo.
The test system of data set [14] is Homo sapiens. In words: AUC (0 to last) in healthy obese adult male human at 25 mg, po administered as single dose. The following applies: in vivo. The arrangement: dose 25 mg, time 0 - last, route oral. Type of data set: ADME, organism-based, Plasma.
Data set [15] concerns Homo sapiens. Description: AUC (0 to infinity) in healthy obese adult male human at 25 mg, po administered as single dose. Type of data set: ADME, organism-based, Plasma. More on the design: dose 25 mg, route oral, time infinity. The following applies: in vivo.
The nature of data set [16]: Terminal elimination half life in healthy obese adult male human at 25 mg, po administered as single dose. Type of data set: ADME, organism-based. The settings on record: in vivo, read-out: beta t1/2 (converted).
Data set [17] is described as follows: Bioavailability in rat. Type of data set: ADME, organism-based. The settings on record: in vivo.
Data set [18] in a line: Bioavailability in dog. The following applies: in vivo. Type of data set: ADME, organism-based, Canis lupus familiaris.

We go through 5 molecules from ChEMBL document CHEMBL3526047, “Excretion, metabolism, and pharmacokinetics of 1-(8-(2-chlorophenyl)-9-(4-chlorophenyl)-9H-purin-6-yl)-4-(ethylamino)piperidine-4-carboxamide, a selective cannabinoid receptor antagonist, in healthy male volunteers” (Drug Metab Dispos, 2012).

A word on the Tmax: it is the time from dosing to the highest level. By Cmax is commonly meant the peak of the concentration-time curve. The term bioavailability denotes the share of a dose that reaches the circulation, judged against a reference dose that is usually intravenous. Read a low bioavailability as little systemic uptake.

Cytochrome P450 3A4, sequence (P08684 whole entry): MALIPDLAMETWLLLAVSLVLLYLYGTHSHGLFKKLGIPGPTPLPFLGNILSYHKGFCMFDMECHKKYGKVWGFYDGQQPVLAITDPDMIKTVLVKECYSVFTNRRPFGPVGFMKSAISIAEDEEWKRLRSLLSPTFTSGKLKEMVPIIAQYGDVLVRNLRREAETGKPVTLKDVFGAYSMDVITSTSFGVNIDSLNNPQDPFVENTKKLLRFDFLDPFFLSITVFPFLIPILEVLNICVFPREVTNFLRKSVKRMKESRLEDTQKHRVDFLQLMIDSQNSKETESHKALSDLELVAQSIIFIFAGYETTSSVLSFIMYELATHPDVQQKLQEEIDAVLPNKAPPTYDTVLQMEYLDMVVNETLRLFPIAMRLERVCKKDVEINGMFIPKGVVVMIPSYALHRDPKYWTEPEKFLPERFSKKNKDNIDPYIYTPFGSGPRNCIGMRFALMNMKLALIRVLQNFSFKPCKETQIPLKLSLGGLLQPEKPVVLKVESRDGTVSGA

As for `NC1(C(=O)O)CCN(c2ncnc3c2nc(-c2ccccc2Cl)n3-c2ccc(Cl)cc2)CC1`, the Drug excretion in [1] is recorded as 5.4%; in data set [2], 30.9%; with Homo sapiens [3], 36.3%.

Regarding `NC(=O)C1(NO[C@@H]2O[C@H](CO)[C@@H](O)[C@H](O)[C@H]2O)CCN(c2ncnc3c2nc(-c2ccccc2Cl)n3-c2ccc(Cl)cc2)CC1`, the Drug excretion (in data set [1]; in the data set on Homo sapiens [3]) was 4.8% throughout.

Turning to `NC(=O)C1(NO)CCN(c2ncnc3c2nc(-c2ccccc2Cl)n3-c2ccc(Cl)cc2)CC1`, the Drug excretion in data set [1] worked out at 0.6%; in data set [2] it was 1.2%; with Homo sapiens [3], 1.8%. The Drug metabolism at Cytochrome P450 3A4 is reported as 8.8%.

In the case of `ON=C1CCN(c2ncnc3c2nc(-c2ccccc2Cl)n3-c2ccc(Cl)cc2)CC1`, the Drug uptake with Serum [4] was determined as 17.9 ngequiv/g; with Serum [5], 10.1 ngequiv/g; in the data set on Serum [6], 10.9 ngequiv/g; in the data set with Serum [7], 10.9 ngequiv/g; with Serum [8], 6 ngequiv/g. At Cytochrome P450 3A4, the Drug metabolism is listed as 13%. Further, the AUC in the data set with Serum [9] was 438 ngequiv.hr/g.

For `CCNC1(C(N)=O)CCN(c2ncnc3c2nc(-c2ccccc2Cl)n3-c2ccc(Cl)cc2)CC1.Cl` [OTENABANT HYDROCHLORIDE], the Tmax in data set [10] was 4 h; in data set [12] it was 6 h. For the same molecule, the half-life in data set [11] is 4.46 days; in [16], 6.62 days. This molecule also registered a Cmax in data set [13] of 14 ng/mL. In the data set on Homo sapiens [14], the AUClast came to 778 ng·h/mL. Moreover, the AUC in the data set with Homo sapiens [15] turned out to be 864 ng·h/mL. Moreover, the bioavailability in data set [17] and in [18] was 32% in each case.
